Test [1] concerns Staphylococcus aureus. The test can be described thus: Antibacterial activity against methicillin-resistant Staphylococcus aureus assessed as alteration in bacterial growth incubated for overnight by microtiter plate based spectrophotometric analysis. Format: functional, organism-based.
The test system of test [2] is Staphylococcus aureus. The test can be described thus: Antibiofilm activity against methicillin-resistant Staphylococcus aureus assessed as inhibition of biofilm formation by measuring residual biofilm growth incubated for overnight at 10-fold dilution by crystal violet staining based microtiter plate assay relative to control. Format: functional.
Test [3] has as its system Staphylococcus aureus. In words: Antibiofilm activity against methicillin-resistant Staphylococcus aureus assessed as inhibition of biofilm formation incubated for overnight by crystal violet staining based microtiter plate assay. The test is classed as functional, organism-based.

Experimental findings from ChEMBL document CHEMBL4376833, “Influence of Non-natural Cationic Amino Acids on the Biological Activity Profile of Innate Defense Regulator Peptides” (J Med Chem, 2019) are described below.

Active and inactive are the calls of the source. How the calls were made is not given here. Non-standard residues stand in square brackets, D forms with d. Residues, ends and D or L forms follow the SMILES beside them. hArg = N=C(N)NCCCC[C@H](N)C(=O)O; Agb = N=C(N)NCC[C@H](N)C(=O)O; Agp = N=C(N)NC[C@H](N)C(=O)O; Orn = NCCC[C@H](N)C(=O)O; Dab = NCC[C@H](N)C(=O)O; Dap = NC[C@H](N)C(=O)O

Turning to H-VRLIVAVRIWKR-NH2, the outcome in the test with Staphylococcus aureus [1] was Active. For the same molecule, the “residual biofilm growth (% of control)” value in the test on Staphylococcus aureus [2] came out at 11.8%. In the test on Staphylococcus aureus [3], the inhibition entry was “Dose-dependent effect”.

As for `CC[C@H](C)[C@H](NC(=O)[C@H](CNC(=N)N)NC(=O)[C@@H](NC(=O)[C@H](C)NC(=O)[C@@H](NC(=O)[C@@H](NC(=O)[C@H](CC(C)C)NC(=O)[C@H](CCCNC(=N)N)NC(=O)[C@@H](N)C(C)C)[C@@H](C)CC)C(C)C)C(C)C)C(=O)N[C@@H](Cc1c[nH]c2ccccc12)C(=O)N[C@@H](CCCNC(=N)N)C(=O)N[C@@H](CCCNC(=N)N)C(N)=O` (H-VRLIVAV[Agp]IWRR-NH2), the result in the test with Staphylococcus aureus [1] was Active. Also, the “residual biofilm growth (% of control)” value in the test with Staphylococcus aureus [2] worked out at 102.2%. In addition, the inhibition entry in the test on Staphylococcus aureus [3] was “Dose-dependent effect”.

As for `CC[C@H](C)[C@H](NC(=O)[C@H](CCCNC(=N)N)NC(=O)[C@@H](NC(=O)[C@H](C)NC(=O)[C@@H](NC(=O)[C@@H](NC(=O)[C@H](CC(C)C)NC(=O)[C@H](CCCNC(=N)N)NC(=O)[C@@H](N)C(C)C)[C@@H](C)CC)C(C)C)C(C)C)C(=O)N[C@@H](Cc1c[nH]c2ccccc12)C(=O)N[C@@H](CCCN)C(=O)N[C@@H](CCCNC(=N)N)C(N)=O` (H-VRLIVAVRIW[Orn]R-NH2), the outcome with Staphylococcus aureus [1] was Active. Moreover, the “residual biofilm growth (% of control)” value with Staphylococcus aureus [2] was 12.3%. Moreover, the inhibition result in the test with Staphylococcus aureus [3] is “Dose-dependent effect”.

In the case of H-VRLIVAVRRWRR-NH2, in the test with Staphylococcus aureus [1], the result was Active. In addition, the “residual biofilm growth (% of control)” value in the test with Staphylococcus aureus [2] is listed as 70.2%. The inhibition result in the test with Staphylococcus aureus [3] was “Dose-dependent effect”.

Consider `CC[C@H](C)[C@H](NC(=O)[C@H](CC(C)C)NC(=O)[C@H](CCCNC(=N)N)NC(=O)[C@@H](N)C(C)C)C(=O)N[C@H](C(=O)N[C@@H](C)C(=O)N[C@H](C(=O)N[C@@H](CCCNC(=N)N)C(=O)N[C@@H](CN)C(=O)N[C@@H](Cc1c[nH]c2ccccc12)C(=O)N[C@@H](CCCNC(=N)N)C(=O)N[C@@H](CCCNC(=N)N)C(N)=O)C(C)C)C(C)C` (H-VRLIVAVR[Dap]WRR-NH2), for which the result with Staphylococcus aureus [1] was Active. In addition, the “residual biofilm growth (% of control)” value in the test with Staphylococcus aureus [2] came to 51.8%. Moreover, in the test with Staphylococcus aureus [3], the inhibition result was “Dose-dependent effect”.

Regarding `CC[C@H](C)[C@H](NC(=O)[C@H](CCCNC(=N)N)NC(=O)[C@@H](NC(=O)[C@H](C)NC(=O)[C@@H](NC(=O)[C@@H](NC(=O)[C@H](CC(C)C)NC(=O)[C@H](CCCNC(=N)N)NC(=O)[C@@H](N)C(C)C)[C@@H](C)CC)C(C)C)C(C)C)C(=O)N[C@@H](CCN)C(=O)N[C@@H](CCCNC(=N)N)C(=O)N[C@@H](CCCNC(=N)N)C(N)=O` (H-VRLIVAVRI[Dab]RR-NH2), the result in the test with Staphylococcus aureus [1] was Active. Also, the “residual biofilm growth (% of control)” value in the test on Staphylococcus aureus [2] is 90.8%. Also, in the test on Staphylococcus aureus [3], the inhibition entry was “Dose-dependent effect”.

Regarding `CC[C@H](C)[C@H](NC(=O)[C@H](CCCNC(=N)N)NC(=O)[C@@H](NC(=O)[C@H](C)NC(=O)[C@@H](NC(=O)[C@@H](NC(=O)[C@H](CCN)NC(=O)[C@H](CCCNC(=N)N)NC(=O)[C@@H](N)C(C)C)[C@@H](C)CC)C(C)C)C(C)C)C(=O)N[C@@H](Cc1c[nH]c2ccccc12)C(=O)N[C@@H](CCCNC(=N)N)C(=O)N[C@@H](CCCNC(=N)N)C(N)=O` (H-VR[Dab]IVAVRIWRR-NH2), the result with Staphylococcus aureus [1] was Active. In addition, the “residual biofilm growth (% of control)” value with Staphylococcus aureus [2] is listed as 48.6%. In the test on Staphylococcus aureus [3], the inhibition result was “Dose-dependent effect”.

Regarding `CC[C@H](C)[C@H](NC(=O)[C@H](CCCNC(=N)N)NC(=O)[C@@H](NC(=O)[C@H](C)NC(=O)[C@@H](NC(=O)[C@@H](NC(=O)[C@H](CC(C)C)NC(=O)[C@H](CCCN)NC(=O)[C@@H](N)C(C)C)[C@@H](C)CC)C(C)C)C(C)C)C(=O)N[C@@H](Cc1c[nH]c2ccccc12)C(=O)N[C@@H](CCCNC(=N)N)C(=O)N[C@@H](CCCNC(=N)N)C(N)=O` (H-V[Orn]LIVAVRIWRR-NH2), in the test on Staphylococcus aureus [1], the result was Active. Besides, the “residual biofilm growth (% of control)” value with Staphylococcus aureus [2] is 13.2%. Also, the inhibition entry in the test with Staphylococcus aureus [3] is “Dose-dependent effect”.

As for `CC[C@H](C)[C@H](NC(=O)[C@H](CCCNC(=N)N)NC(=O)[C@H](CCNC(=N)N)NC(=O)[C@H](C)NC(=O)[C@@H](NC(=O)[C@@H](NC(=O)[C@H](CC(C)C)NC(=O)[C@H](CCCNC(=N)N)NC(=O)[C@@H](N)C(C)C)[C@@H](C)CC)C(C)C)C(=O)N[C@@H](Cc1c[nH]c2ccccc12)C(=O)N[C@@H](CCCNC(=N)N)C(=O)N[C@@H](CCCNC(=N)N)C(N)=O` (H-VRLIVA[Agb]RIWRR-NH2), in the test with Staphylococcus aureus [1], the result was Active. For the same molecule, the “residual biofilm growth (% of control)” value in the test on Staphylococcus aureus [2] worked out at 104.1%. Besides, in the test with Staphylococcus aureus [3], the inhibition entry is “Dose-dependent effect”.

For the molecule `CC[C@H](C)[C@H](NC(=O)[C@H](CCCNC(=N)N)NC(=O)[C@@H](NC(=O)[C@H](C)NC(=O)[C@@H](NC(=O)[C@@H](NC(=O)[C@H](CCCCNC(=N)N)NC(=O)[C@H](CCCNC(=N)N)NC(=O)[C@@H](N)C(C)C)[C@@H](C)CC)C(C)C)C(C)C)C(=O)N[C@@H](Cc1c[nH]c2ccccc12)C(=O)N[C@@H](CCCNC(=N)N)C(=O)N[C@@H](CCCNC(=N)N)C(N)=O` (H-VR[hArg]IVAVRIWRR-NH2), the result in the test with Staphylococcus aureus [1] was Active. Moreover, the “residual biofilm growth (% of control)” value with Staphylococcus aureus [2] is listed as 108.6%. Also, the inhibition entry with Staphylococcus aureus [3] was “Dose-dependent effect”.

For `CC[C@H](C)[C@H](NC(=O)[C@H](CC(C)C)NC(=O)[C@H](CCCNC(=N)N)NC(=O)[C@@H](N)C(C)C)C(=O)N[C@@H](CCNC(=N)N)C(=O)N[C@@H](C)C(=O)N[C@H](C(=O)N[C@@H](CCCNC(=N)N)C(=O)N[C@H](C(=O)N[C@@H](Cc1c[nH]c2ccccc12)C(=O)N[C@@H](CCCNC(=N)N)C(=O)N[C@@H](CCCNC(=N)N)C(N)=O)[C@@H](C)CC)C(C)C` (H-VRLI[Agb]AVRIWRR-NH2), the result with Staphylococcus aureus [1] was Active. Moreover, the “residual biofilm growth (% of control)” value in the test with Staphylococcus aureus [2] is reported as 103.2%. In the test on Staphylococcus aureus [3], the inhibition result is “Dose-dependent effect”.

Regarding `CC[C@H](C)[C@H](NC(=O)[C@H](CCCNC(=N)N)NC(=O)[C@@H](NC(=O)[C@H](C)NC(=O)[C@@H](NC(=O)[C@@H](NC(=O)[C@H](CC(C)C)NC(=O)[C@H](CCCNC(=N)N)NC(=O)[C@@H](N)CCN)[C@@H](C)CC)C(C)C)C(C)C)C(=O)N[C@@H](Cc1c[nH]c2ccccc12)C(=O)N[C@@H](CCCNC(=N)N)C(=O)N[C@@H](CCCNC(=N)N)C(N)=O` (H-[Dab]RLIVAVRIWRR-NH2), the result in the test on Staphylococcus aureus [1] was Active. Besides, in the test with Staphylococcus aureus [2], the “residual biofilm growth (% of control)” value turned out to be 14.2%. In the test on Staphylococcus aureus [3], the inhibition entry was “Dose-dependent effect”.

Regarding H-RRLIVAVRIWRR-NH2, the outcome in the test with Staphylococcus aureus [1] was Active. Also, the “residual biofilm growth (% of control)” value with Staphylococcus aureus [2] was 12.2%. Besides, the inhibition result in the test with Staphylococcus aureus [3] is “Dose-dependent effect”.

For H-VRLIVARRIWRR-NH2, the result in the test with Staphylococcus aureus [1] was Active. In the test with Staphylococcus aureus [2], the “residual biofilm growth (% of control)” value is listed as 102.6%. For the same molecule, the inhibition result with Staphylococcus aureus [3] is “Dose-dependent effect”.

In the case of `CC[C@H](C)[C@H](NC(=O)[C@H](CCCNC(=N)N)NC(=O)[C@@H](NC(=O)[C@H](CCNC(=N)N)NC(=O)[C@@H](NC(=O)[C@@H](NC(=O)[C@H](CC(C)C)NC(=O)[C@H](CCCNC(=N)N)NC(=O)[C@@H](N)C(C)C)[C@@H](C)CC)C(C)C)C(C)C)C(=O)N[C@@H](Cc1c[nH]c2ccccc12)C(=O)N[C@@H](CCCNC(=N)N)C(=O)N[C@@H](CCCNC(=N)N)C(N)=O` (H-VRLIV[Agb]VRIWRR-NH2), the result with Staphylococcus aureus [1] was Active. In addition, the “residual biofilm growth (% of control)” value in the test with Staphylococcus aureus [2] is recorded as 105.9%. Besides, the inhibition result in the test on Staphylococcus aureus [3] is “Dose-dependent effect”.

For `CC[C@H](C)[C@H](NC(=O)[C@H](CCCNC(=N)N)NC(=O)[C@@H](NC(=O)[C@H](C)NC(=O)[C@@H](NC(=O)[C@@H](NC(=O)[C@H](CC(C)C)NC(=O)[C@H](CCCNC(=N)N)NC(=O)[C@@H](N)CN)[C@@H](C)CC)C(C)C)C(C)C)C(=O)N[C@@H](Cc1c[nH]c2ccccc12)C(=O)N[C@@H](CCCNC(=N)N)C(=O)N[C@@H](CCCNC(=N)N)C(N)=O` (H-[Dap]RLIVAVRIWRR-NH2), the result in the test on Staphylococcus aureus [1] was Active. Further, the “residual biofilm growth (% of control)” value in the test on Staphylococcus aureus [2] turned out to be 8.5%. The inhibition result with Staphylococcus aureus [3] was “Dose-dependent effect”.

For the molecule `CC[C@H](C)[C@H](NC(=O)[C@H](CCCNC(=N)N)NC(=O)[C@@H](NC(=O)[C@H](C)NC(=O)[C@@H](NC(=O)[C@@H](NC(=O)[C@H](CC(C)C)NC(=O)[C@H](CCCNC(=N)N)NC(=O)[C@@H](N)CNC(=N)N)[C@@H](C)CC)C(C)C)C(C)C)C(=O)N[C@@H](Cc1c[nH]c2ccccc12)C(=O)N[C@@H](CCCNC(=N)N)C(=O)N[C@@H](CCCNC(=N)N)C(N)=O` (H-[Agp]RLIVAVRIWRR-NH2), in the test with Staphylococcus aureus [1], the result was Active. Also, the “residual biofilm growth (% of control)” value in the test with Staphylococcus aureus [2] stood at 10.6%. Further, the inhibition result in the test on Staphylococcus aureus [3] is “Dose-dependent effect”.

For `CC[C@H](C)[C@H](NC(=O)[C@H](CCN)NC(=O)[C@@H](NC(=O)[C@H](C)NC(=O)[C@@H](NC(=O)[C@@H](NC(=O)[C@H](CC(C)C)NC(=O)[C@H](CCCNC(=N)N)NC(=O)[C@@H](N)C(C)C)[C@@H](C)CC)C(C)C)C(C)C)C(=O)N[C@@H](Cc1c[nH]c2ccccc12)C(=O)N[C@@H](CCCNC(=N)N)C(=O)N[C@@H](CCCNC(=N)N)C(N)=O` (H-VRLIVAV[Dab]IWRR-NH2), the result with Staphylococcus aureus [1] was Active. In the test on Staphylococcus aureus [2], the “residual biofilm growth (% of control)” value stood at 103.9%. The inhibition result with Staphylococcus aureus [3] is “Dose-dependent effect”.

In the case of H-VRLIVAKRIWRR-NH2, the outcome with Staphylococcus aureus [1] was Active. Moreover, the “residual biofilm growth (% of control)” value in the test with Staphylococcus aureus [2] was 101.6%. In addition, the inhibition result with Staphylococcus aureus [3] was “Dose-dependent effect”.

Consider `CC[C@H](C)[C@H](NC(=O)[C@H](CCCNC(=N)N)NC(=O)[C@H](CNC(=N)N)NC(=O)[C@H](C)NC(=O)[C@@H](NC(=O)[C@@H](NC(=O)[C@H](CC(C)C)NC(=O)[C@H](CCCNC(=N)N)NC(=O)[C@@H](N)C(C)C)[C@@H](C)CC)C(C)C)C(=O)N[C@@H](Cc1c[nH]c2ccccc12)C(=O)N[C@@H](CCCNC(=N)N)C(=O)N[C@@H](CCCNC(=N)N)C(N)=O` (H-VRLIVA[Agp]RIWRR-NH2), for which the result with Staphylococcus aureus [1] was Active. In the test with Staphylococcus aureus [2], the “residual biofilm growth (% of control)” value is on record as 106.7%. In the test on Staphylococcus aureus [3], the inhibition entry was “Dose-dependent effect”.
